Test results published in patent US8445691B2, “Heterocyclic thiosubstituted alkanol derivatives” (Bayer CropScience AG, priority 2010, dated 2013).
Values joined by “and” are separate entries in the source; they are usually repeats but may differ in a detail not shown here. Equal values may be shown once.

How the values were obtained:
[1] = logP by reversed-phase HPLC (EEC Directive 79/831 Annex V.A8); assay type: physicochemical; settings: method [a]: LC-MS, acidic range pH 2.7, 0.1% aqueous formic acid / acetonitrile, linear gradient 10% to 95% acetonitrile, C18 reversed phase
Method: The logP values were measured in accordance with EEC Directive 79/831 Annex V.A8 by HPLC (High Performance Liquid Chromatography) using reversed-phase columns (C 18) by the following methods:
[a] The LC-MS determination in the acidic range is effected at pH 2.7 with 0.1% aqueous formic acid and acetonitrile (contains 0.1% formic acid) as eluents; linear gradient from 10% acetonitrile to 95% acetonitrile.

Alternaria solani = assay: Alternaria test (tomato) / protective; assay type: in vivo; settings: 500 ppm active ingredient, protective spray on young tomato plants, evaluation 7 days after inoculation; 0% = control, 100% = no infection
Method: Alternaria Test (Tomato)/Protective
(§1) • Solvent: 49 parts by weight of N,N-dimethylformamide • Emulsifier: 1 part by weight of alkylaryl polyglycol ether
To produce an appropriate active ingredient formulation, 1 part by weight of active ingredient is mixed with the specified amounts of solvent and emulsifier, and the concentrate is diluted with water to the desired concentration. To test for protective activity, young tomato plants are sprayed with the active ingredient formulation at the stated application rate. One day after the treatment, the plants are inoculated with a spore suspension of Alternaria solani and are then left to stand at 100% relative humidity and 22° C. for 24 h. Subsequently, the plants are left to stand at 96% relative air humidity and a temperature of 20° C. Evaluation follows 7 days after the […]. 0% means an efficacy which corresponds to that of the control, whereas an efficacy of 100% means that no infection is observed.

Sphaerotheca fuliginea = assay: Sphaerotheca test (cucumber) / protective; assay type: in vivo; settings: 500 ppm active ingredient, protective spray on young cucumber plants, evaluation 7 days after inoculation; 0% = control, 100% = no infection
Method: Sphaerotheca Test (Cucumber)/Protective
as §1
To produce an appropriate active ingredient formulation, 1 part by weight of active ingredient is mixed with the specified amounts of solvent and emulsifier, and the concentrate is diluted with water to the desired concentration. To test for protective activity, young cucumber plants are sprayed with the formulation of active ingredient at the stated application rate. 1 day after the treatment, the plants are inoculated with a spore suspension of Sphaerotheca fuliginea. The plants are then placed in a greenhouse at 70% relative air humidity and a temperature of 23° C. Evaluation follows 7 days after the inoculation. 0% means an efficacy which corresponds to that of the control, whereas an efficacy of 100% means that no infection is observed.

Compound | logP [1] | efficacy (Alternaria solani) [%] | efficacy (Sphaerotheca fuliginea)
CC(Oc1ccc(SCC(O)(c2cncs2)C(C)(C)C)cc1)C(C)(C)C (stereo not drawn) [Compound 46] | log p 5.53^[a] | – | –
CC(C)(C)C(O)(CSc1cc(Cl)ccc1Cl)c1cncs1 (stereo not drawn) [Compound 74] | log p 3.83^[a] | – | –
CC(C)(C)C(O)(CSc1ccc(-c2ccccc2)cc1)c1cncs1 (stereo not drawn) [Compound 44] | log p 4.39 ^[a] | 100 | –
CC(C)(C)C(O)(CSc1cccc(Cl)c1Cl)c1cncs1 (stereo not drawn) [Compound 60] | log p 3.76^[a] | 94 | –
CC(C)(C)c1ccc(SCC(O)(c2cncs2)C(C)(C)C)cc1 (stereo not drawn) [Compound 19] | log p 3.7^[a] | – | –
CC(C)(C)C(O)(CSc1ccc2ccccc2c1)c1cncs1 (stereo not drawn) [Compound 35] | log p 3.92^[a] | – | –
CC(C)(C)C(O)(CSc1ccc(F)cc1)c1cncs1 (stereo not drawn) [Compound 65] | log p 3.21^[a] | – | –
CC(C)(C)C(O)(CSc1cc(C(F)(F)F)ccc1Cl)c1cncs1 (stereo not drawn) [Compound 43] | log p 4.02^[a] | – | –
CC(C)(C)C(O)(CSc1cc(C(F)(F)F)cc(C(F)(F)F)c1)c1cncs1 (stereo not drawn) [Compound 58] | log p 4.37^[a] | – | –
COC(=O)c1ccccc1SCC(O)(c1cncs1)C(C)(C)C (stereo not drawn) [Compound 67] | log p 2.95^[a] | – | –
CC(C)(C)C(O)(CSc1ccc(Cl)s1)c1cncs1 (stereo not drawn) [Compound 4] | logP 3.68^[a]; [M]^+ = 334. | – | –
CC(C)(C)C(=O)Nc1ccc(SCC(O)(c2cncs2)C(C)(C)C)cc1 (stereo not drawn) [Compound 48] | log p 3.14^[a] | – | –
CC(C)(C)C(O)(CSc1cc(Cl)cc(Cl)c1)c1cncs1 (stereo not drawn) [Compound 59] | log p 4.18^[a] | – | –
CC(C)(C)C(O)(CSc1ccc(Cl)cc1)c1cncs1 (stereo not drawn) [Compound 17] | log p 3.64^[a] | – | –
Cc1ccc(C)c(SCC(O)(c2cncs2)C(C)(C)C)c1 (stereo not drawn) [Compound 70] | log p 3.98^[a] | – | –
CC(C)C(O)(CSc1nncn1-c1ccccc1)c1cncs1 (stereo not drawn) [Compound 25] | log p 1.76^[a] | – | –
CC(=O)Nc1cccc(SCC(O)(c2cncs2)C(C)(C)C)c1 (stereo not drawn) [Compound 54] | log p 2.15^[a] | – | –
CCOC(=O)c1ccc(SCC(O)(c2cncs2)C(C)(C)C)c(C)c1 (stereo not drawn) [Compound 45] | log p 3.7 ^[a] | – | –
Cc1ccccc1SCC(O)(c1cncs1)C(C)(C)C (stereo not drawn) [Compound 64] | log p 3.52^[a] | – | –
CC(C)(C)C(O)(CSc1ccc(F)c(F)c1)c1cncs1 (stereo not drawn) [Compound 50] | log p 3.3^[a] | – | –

Compound | logP [1] | efficacy (Alternaria solani) [%] | efficacy (Sphaerotheca fuliginea)
CC(C)(C)C(O)(CSc1cccc(Br)c1)c1cncs1 (stereo not drawn) [Compound 20] | log p 3.74^[a] | – | –
CC(C)(C)C(O)(CSc1cccc2ccccc12)c1cncs1 (stereo not drawn) [Compound 36] | log p 3.87^[a] | – | –
Cc1cccc(SCC(O)(c2cncs2)C(C)(C)C)c1 (stereo not drawn) [Compound 63] | log p 3.57^[a] | – | –
CC(C)C(O)(CSc1nncn1C1CCCCC1)c1cncs1 (stereo not drawn) [Compound 31] | log p 2.04^[a] | – | –
CC1(C(O)(CSc2ccc(I)cc2)c2cncs2)CCCCC1 (stereo not drawn) [Compound 13] | – | 99 | 89%
CC(C)(C)C(O)(CSc1cccc(C(F)(F)F)c1)c1cncs1 (stereo not drawn) [Compound 61] | log p 3.74^[a] | – | –
Cc1ccc([S+]([O-])CC(O)(c2cncs2)C(C)(C)C)c(C)c1 (stereo not drawn) [Compound 23] | log p 2.92^[a] | – | –
CC(C)(C)C(O)(CSc1ccccc1Br)c1cnc(Sc2ccccc2Br)s1 (stereo not drawn) [Compound 27] | log p 5.78^[a] | – | –
CC(C)(C)C(O)(CSc1ccc(I)cc1)c1cncs1 (stereo not drawn) [Compound 2] | – | 86 | 95%
CC(C)(C)C(O)(CSc1ccc(Cl)c(Cl)c1)c1cncs1 (stereo not drawn) [Compound 38] | log p 4.05^[a] | 75 | 80% and 90%
CC(C)C(O)(CSc1ccc(I)cc1)c1cncs1 (stereo not drawn) [Compound 6] | – | – | 80%
CC(C)(C)C(O)(CSc1ccc(C(=O)c2ccccc2)cc1)c1cncs1 (stereo not drawn) [Compound 53] | log p 3.66^[a] | – | –
CC(=O)Nc1ccc(SCC(O)(c2cncs2)C(C)(C)C)cc1 (stereo not drawn) [Compound 66] | log p 2.13^[a] | – | –
CC(C)Oc1ccc(SCC(O)(c2cncs2)C2(C)CCCCC2)cn1 (stereo not drawn) [Compound 16] | logP 4.70^[a]; [M]^+ = 393. | 94 | –
CC(C)C(O)(CSc1nncn1-c1c(F)cccc1F)c1cncs1 (stereo not drawn) [Compound 24] | log p 1.8^[a] | – | –
Cc1ccc(SCC(O)(c2cncs2)C(C)(C)C)cc1 (stereo not drawn) [Compound 37] | log p 3.63^[a] | – | –
CCc1cccc(C)c1SCC(O)(c1cncs1)C(C)(C)C (stereo not drawn) [Compound 55] | log p 4.41^[a] | – | –
CC(C)(C)C(O)(CSc1ccc(Cl)cc1)Cc1cncs1 (stereo not drawn) [Compound 34] | – | 99 | –
CC(C)(C)C(O)(CSC1CCCCC1)c1cncs1 (stereo not drawn) [Compound 26] | log p 4.17^[a] | – | –
CC(C)(C)C(O)(CSCc1ccc(Cl)cc1Cl)c1cncs1 (stereo not drawn) [Compound 10] | logP 4.29^[a]; [M]^+ = 375. | – | –

Compound | logP [1] | efficacy (Alternaria solani) [%] | efficacy (Sphaerotheca fuliginea)
Cc1cc(C)cc(SCC(O)(c2cncs2)C(C)(C)C)c1 (stereo not drawn) [Compound 68] | log p 4.06^[a] | – | –
CCOC(=O)c1ccc(SCC(O)(c2cncs2)C(C)(C)C)cc1 (stereo not drawn) [Compound 52] | log p 3.41^[a] | – | –
CC(C)(C)C(O)(CSc1ccccc1Cl)c1cncs1 (stereo not drawn) [Compound 71] | log p 3.37^[a] | – | –
COc1ccc(SCC(O)(c2cncs2)C(C)(C)C)cc1 (stereo not drawn) [Compound 18] | log p 3.16^[a] | – | –
CC(C)(C)C(O)(CSc1ccc(Cl)cc1Cl)c1cncs1 (stereo not drawn) [Compound 11] | logP 3.96^[a]; [M]^+ = 361. | 99 | 80%
CC(C)(C)C(O)(CSc1ccccc1)c1cncs1 (stereo not drawn) [Compound 73] | log p 3.8^[a] | – | –
CC(C)(C)C(O)(CSc1ccccc1Br)c1cncs1 (stereo not drawn) [Compound 21] | log p 3.5^[a] | – | –
Cc1ccc(SCC(O)(c2cncs2)C(C)(C)C)c(C)c1 (stereo not drawn) [Compound 28] | log p 4.02^[a] | – | –
CC(C)(C)C(O)(CSc1cccc(Oc2ccccc2)c1)c1cncs1 (stereo not drawn) [Compound 39] | log p 4.33^[a] | – | –
CC(C)(C)C(O)(CSc1ccc(C(=O)NC2CC2)cc1Cl)c1cncs1 (stereo not drawn) [Compound 40] | log p 2.54^[a] | – | –
CC(C)(C)C(O)(CSc1ccc(F)cc1F)c1cncs1 (stereo not drawn) [Compound 47] | log p 3.26^[a] | – | –
CC(C)(C)C(O)(CSc1cccc(Cl)c1)c1cncs1 (stereo not drawn) [Compound 72] | log p 3.59^[a] | – | –
CCc1ccccc1SCC(O)(c1cncs1)C(C)(C)C (stereo not drawn) [Compound 69] | log p 3.9^[a] | – | –
CC(=O)c1ccc(SCC(O)(c2cncs2)C(C)(C)C)c(Cl)c1 (stereo not drawn) [Compound 49] | log p 2.91^[a] | – | –
CC(=O)c1ccccc1SCC(O)(c1cncs1)C(C)(C)C (stereo not drawn) [Compound 42] | log p 2.66^[a] | – | –
CCc1cccc(CC)c1SCC(O)(c1cncs1)C(C)(C)C (stereo not drawn) [Compound 56] | log p 4.78^[a] | – | –
CC(C)(C)C(O)(CSc1cc(Cl)c(Cl)cc1Cl)c1cncs1 (stereo not drawn) [Compound 62] | log p 4.41^[a] | – | –
CSc1ccc(SCC(O)(c2cncs2)C(C)(C)C)cc1 (stereo not drawn) [Compound 51] | log p 3.59^[a] | – | –
COC(=O)c1ccc(SCC(O)(c2cncs2)C(C)(C)C)cc1 (stereo not drawn) [Compound 41] | log p 3.01^[a] | – | –
Cc1ccc(SCC(O)(c2cncs2)C(C)(C)C)cc1 (stereo not drawn) [Compound 12] | logP 3.63^[a]; [M]^+ = 307. | – | –
